The record followed here is ChEMBL document CHEMBL4118171, “Brain penetrant kinase inhibitors: Learning from kinase neuroscience discovery” (Bioorg Med Chem Lett, 2018).

A short description of data set [1]: Ratio of drug level in brain to plasma in rat. Type of data set: ADME. Conditions: read-out: BPR.
Data set [2] in a line: Ratio of AUC (0 to 3 hrs) in FVB mouse brain to plasma at 1 mg/kg, iv by LC-MS/MS analysis. The format is ADME, organism-based. Conditions: read-out: Ratio AUC.
Data set [3] relates to Rattus norvegicus. Description: In vivo inhibition of Plk2-mediated phosphorylation of alpha-synuclein in Sprague-Dawley rat brain assessed as reduction in pS129-alpha-synuclein levels at 100 mg/kg, po administered as single dose after 6 hrs by sandwich ELISA relative to control. Type of data set: functional. A general note: In an ELISA, binding on a coated surface is turned into a signal by an enzyme label.

In data set [4] the test system is Rattus norvegicus. Kind of data set: In vivo inhibition of Plk2-mediated phosphorylation of alpha-synuclein in Sprague-Dawley rat brain assessed as reduction in pS129-alpha-synuclein levels at 200 mg/kg, po administered as single dose after 6 hrs by sandwich ELISA relative to control. The format is functional.
The nature of data set [5]: Ratio of drug level in Sprague-Dawley rat brain to plasma at 100 mg/kg, po administered as single dose after 6 hrs by LC-MS/MS analysis. Type of data set: ADME, organism-based. To be noted: read-out: BPR.
A short description of data set [6]: Ratio of drug level in Sprague-Dawley rat brain to plasma at 200 mg/kg, po administered as single dose after 6 hrs by LC-MS/MS analysis. Type of data set: ADME, organism-based. To be noted: read-out: BPR.
Data set [7] concerns MDR1. Kind of data set: Efflux ratio of apparent permeability in MDCK2-MDR1. The format is ADME, cell-based, Canis lupus familiaris. Conditions: dog, MDCK-MDR1.
In data set [8] the test system is Mus musculus. Description: In vivo target occupancy at CK1epsilon in C57BL/6J mouse CNS at 10 mg/kg, sc. Type of data set: functional.
A short description of data set [9]: Unbound Cmax in C57BL/6J mouse brain at 10 mg/kg, sc. Type of data set: ADME, organism-based. To be noted: in vivo.
Data set [10] relates to Mus musculus. Description: In vivo target occupancy at CK1delta in C57BL/6J mouse CNS at 10 mg/kg, sc. The format is functional.
In data set [11] the test system is MDR1. Kind of data set: Efflux ratio of apparent permeability in MDCK cells expressing human MDR1. The format is ADME, cell-based, Canis lupus familiaris. To be noted: dog.
Data set [12] in a line: Efflux ratio of apparent permeability in human Caco2 cells by HPLC-MS/MS analysis. To be noted: Caco-2. Type of data set: ADME, cell-based. In general terms: Caco-2 cells form a polarised layer with tight junctions and transporters.
Data set [13] in a line: Ratio of drug level in brain to plasma in Sprague-Dawley rat at 5 mg/kg, po after 3 hrs by LC-MS/MS analysis. Conditions: read-out: BPR. Type of data set: ADME, organism-based.
Data set [14] in a line: Drug uptake in mouse brain up to 20 mg/kg/day, po after 30 to 60 mins by LC/MS analysis relative to plasma. The format is ADME, organism-based.
Data set [15] in a line: Drug uptake in mouse brain at 5 mg/kg/day, po after 30 to 60 mins by LC/MS analysis. Conditions: in vivo, read-out: Drug uptake. Type of data set: ADME, organism-based.
Data set [16] in a line: Ratio of drug level in plasma to CSF in Alzheimer's disease patient at 50 to 125 mg, po qd for 4 weeks measured 23 to 28 hrs post last dose by LC/MS analysis. Conditions: human, in vivo. Type of data set: ADME, organism-based.
Data set [17] is described as follows: Drug uptake in mouse CSF up to 20 mg/kg/day, po after 30 to 60 mins by LC/MS analysis relative to brain. Conditions: in vivo. Type of data set: ADME, organism-based, Cerebrospinal fluid.
Data set [18] in a line: Ratio of drug level in brain to plasma in C57BL6 mouse at 30 mg/kg, po after 1 hr by LC/MS analysis. The format is ADME, organism-based. To be noted: read-out: BPR.

In the case of `CN(CCNc1ccn2ncc(-c3ccc(C(N)=O)cc3)c2n1)C(=O)OC(C)(C)C`, the Kp in data set [1] worked out at 0.007.

Consider `CC[C@@]12COCCN1c1nc(-n3ccnc3-c3ccccc3)ncc1N(C)C2=O`, for which the Kp in [2] stood at 0.3. The inhibition in vivo (in general, the change of the read-out against control, counted positive when it falls) at 100 mg/kg in the data set with Rattus norvegicus [3] came out at 34.5%. Moreover, in the data set with Rattus norvegicus [4], the inhibition in vivo at 200 mg/kg came to 41.4%. Moreover, the Kp at 6 h was determined as 0.42 in data set [5] and 0.46 in data set [6].

With `CN1C(=O)[C@@H](NC(=O)c2nnc(Cc3ccccc3)o2)COc2cccnc21`, the efflux ratio (usually a quotient of directional permeabilities that is used to spot active efflux) in the data set on MDR1 [7] is below 2.

In the case of `COc1ncccc1-c1cnn2ccc(N3CCN(C(=O)OC(C)C)CC3)nc12`, the Kp in data set [1] is above 2.

`Nc1nccc(-c2c(-c3ccc(F)cc3)ncn2C2CCN(Cc3ccon3)CC2)n1`: the Occ with Mus musculus [8] stood at 58%; with Mus musculus [10] it was 88%. The fCmax in data set [9] is on record as 117 nM. Further, the efflux ratio in the data set on MDR1 [11] was 3.2.

On to `CN1CCN(c2cc(-c3ccncc3)c(-c3ccc4ccccc4c3)nn2)CC1` [MW-150], for which, in data set [12], the efflux ratio turned out to be 0.9. For the same compound, the Kp at 3 h in data set [13] was above 0.9.

In the case of `CN1CCN(CCOc2cc(OC3CCOCC3)c3c(Nc4c(Cl)ccc5c4OCO5)ncnc3c2)CC1` [SARACATINIB], the Drug uptake is given as 50% in [14] and 35% in [17]. In addition, the concentration in [15] came to 50 nM. For the same compound, the Ratio in [16] turned out to be 0.4.

Consider `Cc1ccc(C(=O)NNC(=O)c2c(C)cccc2Cl)cc1C#Cc1cnc2ccccc2c1` [VODOBATINIB], for which the Kp at 1 h in [18] was 0.4.
